Here are results for 23 compounds from patent US12145944B2, “Imidazopyrimidines as EED inhibitors and the use thereof” (THE REGENTS OF THE UNIVERSITY OF MICHIGAN, priority 2019, dated 2024).

Assay [1] has as its system KARPAS422 human B cell lymphoma cell. Nature of the assay: Cell proliferation, KARPAS422, 7 day treatment (WST-8). It is filed as cell-based. An outline of the steps: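 KARPAS422 cells seeded at 2 000-3 000 cells/well and exposed to serially diluted compounds for 7 days at 37 °C, 5% CO2. Growth measured by WST-8 (1-4 h, absorbance 450 nm). Readings normalized to DMSO-treated cells; IC50 from nonlinear regression.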
(In general: Tetrazolium assays rely on reduction of a dye to a coloured formazan, in cell work by metabolically active cells.)

A further assay concerns the target T1, EED (1-441)-His protein (Homo sapiens, UniProt O75530).
T1 construct: 20 nM EED (1-441)-His protein
Nature of the assay: EED-H3K27Me3 peptide competition binding assay by AlphaScreen. The procedure: “N/A” stands for “not assessed”.
EED-H3K27Me3 peptide competition binding assay by AlphaScreen (α-screen)
2.5 μl of solutions containing 20 nM biotin-H3K27Me3 (19-33) peptide in the buffer (25 mM HEPES, pH 8, 0.02% Tween-20, 0.5% BSA) were added to the wells and then incubated with compound for 30 min. […] Then 10 μl of the detection beads mix was added to the plate and incubated in the dark at RT for 1 h. The final concentration of donor and acceptor beads was 10 μg/ml for each. […] The data were then fit to a dose response equation to get the IC50 values.
In general terms: Bead proximity is the source of the signal in Alpha formats.

For another assay, the system named is Pfeiffer cell line. The assay can be described thus: Anti-proliferative activity, Pfeiffer cell line, 7 day treatment. Type of assay: cell-based. Conditions: Homo sapiens, Pfeiffer, 168 h, read-out: Pfeiffer Cell line (nM). An outline of the steps: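 Cells seeded at 2 000-3 000 per well were treated with serially diluted compounds for 7 days at 37° C, 5% CO2. Growth was measured by WST-8 assay read at 450 nm after 1-4 h reagent incubation. Readings were normalized to DMSO-treated cells and IC50 values derived by nonlinear regression.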

[2] abbreviates: anti-proliferative IC50, Karpas 422 cell line, 7 day treatment, read-out: Karpas Cell line.
The mark [3] stands for this setting: EED Alpha screen binding assay, read-out: Alpha screen.
[4] abbreviates: Homo sapiens, KARPAS-422, 168 h, read-out: Karpas Cell line (nM).
The mark [5] stands for this setting: Homo sapiens, KARPAS-422, 168 h, anti-proliferative IC50, Karpas 422 cell line, 7 day treatment, read-out: Karpas Cell line.

Where two headings read alike, the source gives them in different places. Where only a bound is given, the exact number is not on record here.

T1 sequence (O75530 whole entry): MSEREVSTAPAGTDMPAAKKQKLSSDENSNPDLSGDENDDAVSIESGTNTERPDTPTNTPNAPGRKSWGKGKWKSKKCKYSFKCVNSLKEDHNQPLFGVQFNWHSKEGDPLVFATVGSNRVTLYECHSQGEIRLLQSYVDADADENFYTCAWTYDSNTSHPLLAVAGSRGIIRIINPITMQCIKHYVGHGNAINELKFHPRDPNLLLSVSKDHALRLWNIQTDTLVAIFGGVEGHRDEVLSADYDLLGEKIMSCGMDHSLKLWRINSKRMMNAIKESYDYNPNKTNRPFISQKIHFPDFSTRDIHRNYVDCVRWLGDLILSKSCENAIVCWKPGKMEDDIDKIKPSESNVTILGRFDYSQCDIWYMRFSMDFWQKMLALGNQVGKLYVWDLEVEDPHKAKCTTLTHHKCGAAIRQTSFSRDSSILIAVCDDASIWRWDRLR

As for “4-(2,2-difluoroethyl)-7-fluoro-12-(((5-fluoro-2,3- dihydrobenzofuran-4-yl)methyl)amino)-4,5-dihydro- 3H-2,4,11,12a-tetraazabenzo[4,5]cycloocta[1,2,3- cd]inden-3-one [compound 80]”, the values for the IC50 (in assay [1] (setting [2]); at EED (1-441)-His protein (setting [3])) were 2.42 nM and 1.61 nM, respectively.
The corresponding values for “4-(2,2-difluoropropyl)-7-fluoro-12-(((5-fluoro-2,3- dihydrobenzofuran-4-yl)methyl)amino)-4,5-dihydro- 3H-2,4,11,12a-tetraazabenzo[4,5]cycloocta[1,2,3- cd]inden-3-one [compound 76]” are 14.5 nM and 0.97 nM.
The corresponding values for “7-fluoro-12-(((5-fluoro-2,3-dihydrobenzofuran-4- yl)methyl)amino)-4-(1-methylpiperidin-4-yl)-4,5- dihydro-3H-2,4,11,12a- tetraazabenzo[4,5]cycloocta[1,2,3-cd]inden-3-one [compound 75]” are 11.1 nM and 1.72 nM.
The corresponding values for “7-fluoro-12-(((5-fluoro-2,3-dihydrobenzofuran-4- yl)methyl)amino)-4-(2-fluoro-2-methylpropyl)-4,5- dihydro-3H-2,4,11,12a- tetraazabenzo[4,5]cycloocta[1,2,3-cd]inden-3-one [compound 78]” are 34.5 nM and 3.23 nM.
For the compound “7-fluoro-12-(((5-fluoro-2,3-dihydrobenzofuran-4- yl)methyl)amino)-4-(2-fluoroethyl)-4,5-dihydro-3H- 2,4,11,12a-tetraazabenzo[4,5]cycloocta[1,2,3- cd]inden-3-one [compound 79]”, the IC50 in assay [1] (setting [2]) amounted to 15.3 nM; on EED (1-441)-His protein (setting [3]), 1.61 nM.
With `CS(=O)(=O)c1ccc(-c2cnc(NCc3c(F)ccc4c3CCO4)n3cnc(S(C)(=O)=O)c23)cc1` [compound 100, N-((5-fluoro-2,3-dihydrobenzofuran-4-yl)methyl)-1-(methylsulfonyl)-8-(4 (methylsulfonyl)phenyl)imidazo[1,5-c]pyrimidin-5-amine], the IC50 in assay [1] (setting [4]) stood at 0.26 nM; in the assay on Pfeiffer cell line it was 1.05 nM.
The like results for `Cc1ncccc1-c1cnc(NCc2c(F)ccc3c2CCO3)n2cnc(S(C)(=O)=O)c12` [compound 101, N-((5-fluoro-2,3-dihydrobenzofuran-4-yl)methyl)-8-(2-methylpyridin-3-yl)-1-(methylsulfonyl)imidazo[1,5-c]pyrimidin-5-amine] were, in that order, 5.59 nM and 1.76 nM.
In the case of `CS(=O)(=O)c1ncn2c(NCc3c(F)ccc4c3CCO4)ncc(-c3ccc(F)cc3)c12` [compound 104, N-((5-fluoro-2,3-dihydrobenzofuran-4-yl)methyl)-8-(4-fluorophenyl)-1 (methylsulfonyl)imidazo[1,5-c]pyrimidin-5-amine], the IC50 was found to be 8.1 nM in assay [1] (setting [4]) and 0.59 nM on EED (1-441)-His protein (setting [3]).
As for `Cn1cc(-c2cnc(NCc3c(F)ccc4c3CCO4)n3cnc(S(C)(=O)=O)c23)cn1` [compound 106, N-((5-fluoro-2,3-dihydrobenzofuran-4-yl)methyl)-8-(1-methyl-1H-pyrazol-4-yl)-1-(methylsulfonyl)imidazo[1,5-c]pyrimidin-5-amine], the IC50 came to 10.6 nM in assay [1] (setting [4]) and 0.556 nM at EED (1-441)-His protein (setting [3]).
As for `CS(=O)(=O)c1ncn2c(NCc3c(F)ccc4c3CCO4)ncc(-c3ccc(C(F)F)nc3)c12` [compound 107, 8-(6-(difluoromethyl)pyridin-3-yl)-N-((5-fluoro-2,3-dihydrobenzofuran-4-yl)methyl)-1-(methylsulfonyl)imidazo[1,5-c]pyrimidin-5-amine], the IC50 in assay [1] (setting [4]) turned out to be 2.84 nM; on EED (1-441)-His protein, 0.215 nM.
As for `Cc1ccc(-c2cnc(NCc3c(F)ccc4c3CCO4)n3cnc(S(C)(=O)=O)c23)c(C)n1` [compound 108, 8-(2,6-dimethylpyridin-3-yl)-N-((5-fluoro-2,3-dihydrobenzofuran-4-yl)methyl)-1-(methylsulfonyl)imidazo[1,5-c]pyrimidin-5-amine], the IC50 in assay [1] (setting [4]) turned out to be 6.89 nM; on EED (1-441)-His protein (setting [3]), 0.421 nM.
As to `Cc1nc(C(F)(F)F)ccc1-c1cnc(NCc2c(F)ccc3c2CCO3)n2cnc(S(C)(=O)=O)c12` [compound 109, N-((5-fluoro-2,3-dihydrobenzofuran-4-yl)methyl)-8-(2-methyl-6-(trifluoromethyl)pyridin-3-yl)-1-(methylsulfonyl)imidazo[1,5-c]pyrimidin-5-amine], the IC50 was found to be 10.9 nM in assay [1] (setting [4]) and 0.53 nM on EED (1-441)-His protein (setting [3]).
The corresponding values for `Cc1cc(S(C)(=O)=O)ccc1-c1cnc(NCc2c(F)ccc3c2CCO3)n2cnc(S(C)(=O)=O)c12` [compound 110, N-((5-fluoro-2,3-dihydrobenzofuran-4-yl)methyl)-8-(2-methyl-4-(methylsulfonyl)phenyl)-1-(methylsulfonyl)imidazo[1,5-c]pyrimidin-5-amine] are 3.93 nM and 0.47 nM.
Turning to `CS(=O)(=O)c1ncn2c(NCc3c(F)ccc4c3CCO4)ncc(-c3ccc(C4CC4)nc3)c12` [compound 111, 8-(6-cyclopropylpyridin-3-yl)-N-((5-fluoro-2,3-dihydrobenzofuran-4-yl)methyl)-1-(methylsulfonyl)imidazo[1,5-c]pyrimidin-5-amine], the IC50 was found to be 1.42 nM in assay [1] (setting [4]) and 0.34 nM at EED (1-441)-His protein (setting [3]).
For `CS(=O)(=O)c1ccc(-c2cnc(NCc3c(F)ccc4c3CCO4)n3cnc(C(F)(F)F)c23)cc1` [compound 112, N-((5-fluoro-2,3-dihydrobenzofuran-4-yl)methyl)-8-(4-(methylsulfonyl)phenyl)-1-(trifluoromethyl)imidazo[1,5-c]pyrimidin-5-amine], the IC50 is 20.3 nM in assay [1] (setting [5]) and 0.83 nM on EED (1-441)-His protein (setting [3]).
The like results for `Fc1ccc2c(c1CNc1ncc(-c3ccc(C(F)(F)F)cc3)c3c(C(F)(F)F)ncn13)CCO2` [compound 113, N-((5-fluoro-2,3-dihydrobenzofuran-4-yl)methyl)-1-(trifluoromethyl)-8-(4-(trifluoromethyl)phenyl)imidazo[1,5-c]pyrimidin-5-amine] were, in that order, above 100 nM and 0.98 nM.
Take `Fc1ccc(-c2cnc(NCc3c(F)ccc4c3CCO4)n3cnc(C(F)(F)F)c23)cc1` [compound 114, N-((5-fluoro-2,3-dihydrobenzofuran-4-yl)methyl)-8-(4-fluorophenyl)-1-(trifluoromethyl)imidazo[1,5-c]pyrimidin-5-amine]: the results for the IC50 (in assay [1] (setting [5]); at EED (1-441)-His protein (setting [3])) were above 100 nM and 1.48 nM, respectively.
The like results for `Cc1ccc(-c2cnc(NCc3c(F)ccc4c3CCO4)n3cnc(C(F)(F)F)c23)c(C)n1` [compound 115, 8-(2,6-dimethylpyridin-3-yl)-N-((5-fluoro-2,3-dihydrobenzofuran-4-yl)methyl)-1-(trifluoromethyl)imidazo[1,5-c]pyrimidin-5-amine] were, in that order, 50.1 nM and 2.35 nM.
The corresponding values for `Fc1ccc2c(c1CNc1ncc(-c3ccc(C(F)(F)F)nc3)c3c(C(F)(F)F)ncn13)CCO2` [compound 116, N-((5-fluoro-2,3-dihydrobenzofuran-4-yl)methyl)-1-(trifluoromethyl)-8-(6-(trifluoromethyl)pyridin-3-yl)imidazo[1,5-c]pyrimidin-5-amine] are above 100 nM and 1.98 nM.
The corresponding values for `CP(C)(=O)c1ncn2c(NCc3c(F)ccc4c3CCO4)ncc(-c3ccc(C(F)F)nc3)c12` [compound 117, (8-(6-(difluoromethyl)pyridin-3-yl)-5-(((5-fluoro-2,3-dihydrobenzofuran-4-yl)methyl)amino)imidazo[1,5-c]pyrimidin-1-yl)dimethylphosphine oxide] are 19.5 nM and 0.19 nM.
As for `CP(C)(=O)c1ncn2c(NCc3c(F)ccc4c3CCO4)ncc(-c3ccc(F)cc3)c12` [compound 118, (5-(((5-fluoro-2,3-dihydrobenzofuran-4-yl)methyl)amino)-8-(4-fluorophenyl)imidazo[1,5-c]pyrimidin-1-yl)dimethylphosphine oxide], the IC50 was determined as 28.4 nM in assay [1] (setting [5]) and 0.27 nM at EED (1-441)-His protein (setting [3]).
The corresponding values for `CP(C)(=O)c1ncn2c(NCc3c(F)ccc4c3CCO4)ncc(-c3ccc(C(F)(F)F)nc3)c12` [compound 119, (5-(((5-fluoro-2,3-dihydrobenzofuran-4-yl)methyl)amino)-8-(6-(trifluoromethyl)pyridin-3-yl)imidazo[1,5-c]pyrimidin-1-yl)dimethylphosphine oxide] are 27.9 nM and 0.2 nM.
In the case of `CCP(=O)(CC)c1ncn2c(NCc3c(F)ccc4c3CCO4)ncc(-c3ccc(C(F)(F)F)nc3)c12` [compound 120, diethyl(5-(((5-fluoro-2,3-dihydrobenzofuran-4-yl)methyl)amino)-8-(6-(trifluoromethyl)pyridin-3-yl)imidazo[1,5-c]pyrimidin-1-yl)phosphine oxide], the IC50 in assay [1] (setting [5]) was above 100 nM; at EED (1-441)-His protein (setting [3]), 1.15 nM.
